Laboratory results reported in patent US20260297109A1, “COMPOUNDS AS SUMO ACTIVATING ENZYME INHIBITORS” (WIGEN BIOMEDICINE TECHNOLOGY (SHANGHAI) CO., LTD., priority 2022, published 2026).
pIC50: −log10 of the molar value.

The molecules below were run against T1, SAE (Homo sapiens, UniProt Q9UBT2) (assay: SUMO IF: in vitro inhibitory activity assay against SAE in HCT116 cells (SUMO-2/3 immunofluorescence)). Conditions: class symbols, 6 h at 37° C.
T1 construct: endogenous in cells; host or cells: HCT116
T1 sequence (Q9UBT2 1-640): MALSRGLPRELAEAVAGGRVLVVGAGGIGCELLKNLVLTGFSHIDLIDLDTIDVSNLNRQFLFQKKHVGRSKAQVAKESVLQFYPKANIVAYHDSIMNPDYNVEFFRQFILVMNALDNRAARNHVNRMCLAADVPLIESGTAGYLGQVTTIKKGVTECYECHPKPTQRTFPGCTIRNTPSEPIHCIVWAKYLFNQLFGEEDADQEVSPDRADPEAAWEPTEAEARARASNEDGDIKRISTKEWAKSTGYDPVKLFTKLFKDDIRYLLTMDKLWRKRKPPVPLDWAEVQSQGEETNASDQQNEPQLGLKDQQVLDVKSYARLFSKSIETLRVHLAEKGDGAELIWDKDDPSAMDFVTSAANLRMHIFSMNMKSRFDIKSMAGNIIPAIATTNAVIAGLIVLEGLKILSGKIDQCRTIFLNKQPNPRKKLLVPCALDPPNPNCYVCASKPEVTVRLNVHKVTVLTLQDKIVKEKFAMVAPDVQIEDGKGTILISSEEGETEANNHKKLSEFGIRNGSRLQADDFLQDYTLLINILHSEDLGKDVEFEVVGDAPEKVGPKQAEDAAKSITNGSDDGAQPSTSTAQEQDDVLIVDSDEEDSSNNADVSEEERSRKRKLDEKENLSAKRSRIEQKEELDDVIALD
T1 sequence (Q9UBE0 1-346): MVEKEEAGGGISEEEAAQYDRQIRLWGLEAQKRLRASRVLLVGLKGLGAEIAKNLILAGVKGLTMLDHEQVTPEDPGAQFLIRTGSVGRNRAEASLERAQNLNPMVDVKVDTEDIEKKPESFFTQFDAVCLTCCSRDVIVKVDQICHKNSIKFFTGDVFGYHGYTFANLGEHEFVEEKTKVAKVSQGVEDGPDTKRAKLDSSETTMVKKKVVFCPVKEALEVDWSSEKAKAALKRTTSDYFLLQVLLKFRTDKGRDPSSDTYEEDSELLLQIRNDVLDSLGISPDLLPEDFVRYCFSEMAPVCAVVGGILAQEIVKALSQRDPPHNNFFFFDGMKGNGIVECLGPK
Format: cell-based
Procedure, shortened: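 SUMO-2/3 immunofluorescence (18H8 primary 1:400, FITC secondary 1:300) was read after 6 h compound exposure of HCT116 cells at 37 °C. Inhibition rate and IC50 derive from signal relative to DMSO-treated wells.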
In the case of `NS(=O)(=O)OC[C@H]1[C@H](F)[C@@H](Nc2ncncc2C(=O)c2cc3c(s2)CC[C@]32NCCc3cc(F)c(Cl)cc32)C[C@@H]1O` [Compound 692], the pIC50 was ≥ 7.30. `NS(=O)(=O)OC[C@H]1[C@H](F)[C@@H](Nc2ncncc2C(=O)c2cc3c(s2)CC[C@]32NCCc3cc(Cl)c(Cl)cc32)C[C@@H]1O` [Compound 693] was tested, and the pIC50 was ≥ 7.30. For `Cc1cc2c(cc1Cl)[C@@]1(CCc3sc(C(=O)c4cncnc4N[C@H]4C[C@H](O)[C@@H](COS(N)(=O)=O)[C@@H]4F)cc31)NCC2` [Compound 694], the pIC50 was ≥ 7.30. With `N#Cc1cc2c(cc1Cl)[C@@]1(CCc3sc(C(=O)c4cncnc4N[C@H]4C[C@H](O)[C@@H](COS(N)(=O)=O)[C@@H]4F)cc31)NCC2` [Compound 695] the pIC50 was ≥ 7.30. Work on `COc1cc2c(cc1Cl)[C@@]1(CCc3sc(C(=O)c4cncnc4N[C@H]4C[C@H](O)[C@@H](COS(N)(=O)=O)[C@@H]4F)cc31)NCC2` [Compound 696] yielded a pIC50 of 6.70 to 7.30. With `NS(=O)(=O)OC[C@H]1[C@H](F)[C@@H](Nc2ncncc2C(=O)c2cc3c(s2)CC[C@]32NCCc3cc(F)c(Cl)c(F)c32)C[C@@H]1O` [Compound 697] the pIC50 was ≥ 7.30. With `NS(=O)(=O)OC[C@H]1[C@H](F)[C@@H](Nc2ncncc2C(=O)c2cc3c(s2)CC[C@]32NCCc3cc(Cl)c(F)cc32)C[C@@H]1O` [Compound 698] the pIC50 was ≥ 7.30. `NS(=O)(=O)OC[C@H]1[C@H](F)[C@@H](Nc2ncncc2C(=O)c2cc3c(s2)CC[C@]32NCCc3ccncc32)C[C@@H]1O` [Compound 699] was tested, and the pIC50 was 6.70 to 7.30. Work on `NS(=O)(=O)OC[C@H]1[C@H](F)[C@@H](Nc2ncncc2C(=O)c2cc3c(s2)CC[C@]32NCCc3cc(Cl)ncc32)C[C@@H]1O` [Compound 700] yielded a pIC50 of 6.70 to 7.30. With `[2H]C1([2H])Cc2ccc(Cl)cc2[C@@]2(C=Cc3sc(C(=O)c4cncnc4N[C@H]4C[C@H](O)[C@@H](COS(N)(=O)=O)[C@@H]4F)cc32)N1` [Compound 701] the pIC50 was ≥ 7.30. For `NS(=O)(=O)OC[C@H]1[C@H](F)[C@@H](Nc2ncncc2C(=O)c2cc3c(s2)CO[C@]32NCCc3ccc(Cl)cc32)C[C@@H]1O` [Compound 703], the pIC50 was 6.70 to 7.30. With `NS(=O)(=O)OC[C@H]1[C@H](F)[C@@H](Nc2ncncc2C(=O)c2cc3c(s2)CC[C@]32NCC3(CC3)c3ccc(Cl)cc32)C[C@@H]1O` [Compound 704] the pIC50 was 6.70 to 7.30. With `NS(=O)(=O)OC[C@H]1[C@H](F)[C@@H](Nc2ncncc2C(=O)c2cc3c(s2)CC[C@]32NC3(CC3)Cc3ccc(Cl)cc32)C[C@@H]1O` [Compound 705] the pIC50 was 6.70 to 7.30. `NS(=O)(=O)OC[C@H]1[C@H](F)[C@@H](Nc2ncncc2C(=O)c2cc3c(s2)CC[C@@]32OCCc3ccc(Cl)cc32)C[C@@H]1O` [Compound 706] was tested, and the pIC50 was < 6.70. For `NS(=O)(=O)OC[C@H]1[C@H](F)[C@@H](Nc2ncncc2C(=O)c2cc3c(s2)CC[C@]32OCCc3ccc(Cl)cc32)C[C@@H]1O` [Compound 707], the pIC50 was ≥ 7.30. For `NS(=O)(=O)OC[C@H]1[C@H](F)[C@@H](Nc2ncncc2C(=O)c2cc3c(s2)CCCC32OCCc3ccccc32)C[C@@H]1O` (stereo partly drawn) [Compound 708], the pIC50 was < 6.70. `NS(=O)(=O)OC[C@H]1[C@H](F)[C@@H](Nc2ncncc2C(=O)c2cc3c(s2)CCC[C@@]32OCCc3ccccc32)C[C@@H]1O` [Compound 709] was tested, and the pIC50 was < 6.70. Work on `NS(=O)(=O)OC[C@H]1[C@H](F)[C@@H](Nc2ncncc2C(=O)c2cc3c(s2)CCC[C@]32OCCc3ccccc32)C[C@@H]1O` [Compound 710] yielded a pIC50 of 6.70 to 7.30. For `NS(=O)(=O)OC[C@H]1[C@H](F)[C@@H](Nc2ncncc2C(=O)c2cc3c(s2)CCCC32OCCc3ccc(F)cc32)C[C@@H]1O` (stereo partly drawn) [Compound 711], the pIC50 was 6.70 to 7.30. In the case of `NS(=O)(=O)OC[C@H]1[C@H](F)[C@@H](Nc2ncncc2C(=O)c2cc3c(s2)CCC[C@@]32OCCc3ccc(F)cc32)C[C@@H]1O` [Compound 712], the pIC50 was < 6.70. With `NS(=O)(=O)OC[C@H]1[C@H](F)[C@@H](Nc2ncncc2C(=O)c2cc3c(s2)CCC[C@]32OCCc3ccc(F)cc32)C[C@@H]1O` [Compound 713] the pIC50 was ≥ 7.30. For `N#Cc1ccc2c(c1)C1(CCCc3sc(C(=O)c4cncnc4N[C@H]4C[C@H](O)[C@@H](COS(N)(=O)=O)[C@@H]4F)cc31)OCC2` (stereo partly drawn) [Compound 714], the pIC50 was 6.70 to 7.30. In the case of `N#Cc1ccc2c(c1)[C@]1(CCCc3sc(C(=O)c4cncnc4N[C@H]4C[C@H](O)[C@@H](COS(N)(=O)=O)[C@@H]4F)cc31)OCC2` [Compound 715], the pIC50 was < 6.70. With `N#Cc1ccc2c(c1)[C@@]1(CCCc3sc(C(=O)c4cncnc4N[C@H]4C[C@H](O)[C@@H](COS(N)(=O)=O)[C@@H]4F)cc31)OCC2` [Compound 716] the pIC50 was ≥ 7.30. Molecule `CN1Cc2sc(C(=O)c3cncnc3N[C@H]3C[C@H](O)[C@@H](COS(N)(=O)=O)[C@@H]3F)cc2C2(C1)OCCc1ccccc12` (stereo partly drawn) [Compound 717] has a pIC50 of 6.70 to 7.30. In the case of `CN1Cc2sc(C(=O)c3cncnc3N[C@H]3C[C@H](O)[C@@H](COS(N)(=O)=O)[C@@H]3F)cc2[C@@]2(C1)OCCc1ccccc12` [Compound 718], the pIC50 was < 6.70. Molecule `CN1Cc2sc(C(=O)c3cncnc3N[C@H]3C[C@H](O)[C@@H](COS(N)(=O)=O)[C@@H]3F)cc2[C@]2(C1)OCCc1ccccc12` [Compound 719] has a pIC50 of 6.70 to 7.30. With `CN1Cc2sc(C(=O)c3cncnc3N[C@H]3C[C@H](O)[C@@H](COS(N)(=O)=O)[C@@H]3F)cc2C2(C1)OCCc1ccc(F)cc12` (stereo partly drawn) [Compound 720] the pIC50 was 6.70 to 7.30. With `CN1Cc2sc(C(=O)c3cncnc3N[C@H]3C[C@H](O)[C@@H](COS(N)(=O)=O)[C@@H]3F)cc2[C@@]2(C1)OCCc1ccc(F)cc12` [Compound 721] the pIC50 was < 6.70. In the case of `CN1Cc2sc(C(=O)c3cncnc3N[C@H]3C[C@H](O)[C@@H](COS(N)(=O)=O)[C@@H]3F)cc2[C@]2(C1)OCCc1ccc(F)cc12` [Compound 722], the pIC50 was ≥ 7.30. With `CN1Cc2sc(C(=O)c3cncnc3N[C@H]3C[C@H](O)[C@@H](COS(N)(=O)=O)[C@@H]3F)cc2C2(C1)OCCc1ccc(Cl)cc12` (stereo partly drawn) [Compound 723] the pIC50 was ≥ 7.30. In the case of `CN1Cc2sc(C(=O)c3cncnc3N[C@H]3C[C@H](O)[C@@H](COS(N)(=O)=O)[C@@H]3F)cc2[C@@]2(C1)OCCc1ccc(Cl)cc12` [Compound 724], the pIC50 was < 6.70. In the case of `CN1Cc2sc(C(=O)c3cncnc3N[C@H]3C[C@H](O)[C@@H](COS(N)(=O)=O)[C@@H]3F)cc2[C@]2(C1)OCCc1ccc(Cl)cc12` [Compound 725], the pIC50 was ≥ 7.30. `CCN1Cc2sc(C(=O)c3cncnc3N[C@H]3C[C@H](O)[C@@H](COS(N)(=O)=O)[C@@H]3F)cc2C2(C1)OCCc1ccc(F)cc12` (stereo partly drawn) [Compound 726] showed a pIC50 of 6.70 to 7.30. In the case of `CCN1Cc2sc(C(=O)c3cncnc3N[C@H]3C[C@H](O)[C@@H](COS(N)(=O)=O)[C@@H]3F)cc2[C@@]2(C1)OCCc1ccc(F)cc12` [Compound 727], the pIC50 was < 6.70. `CCN1Cc2sc(C(=O)c3cncnc3N[C@H]3C[C@H](O)[C@@H](COS(N)(=O)=O)[C@@H]3F)cc2[C@]2(C1)OCCc1ccc(F)cc12` [Compound 728] was tested, and the pIC50 was ≥ 7.30. `CCN1Cc2sc(C(=O)c3cncnc3N[C@H]3C[C@H](O)[C@@H](COS(N)(=O)=O)[C@@H]3F)cc2C2(C1)OCCc1ccc(Cl)cc12` (stereo partly drawn) [Compound 729] was tested, and the pIC50 was ≥ 7.30. In the case of `CCN1Cc2sc(C(=O)c3cncnc3N[C@H]3C[C@H](O)[C@@H](COS(N)(=O)=O)[C@@H]3F)cc2[C@@]2(C1)OCCc1ccc(Cl)cc12` [Compound 730], the pIC50 was < 6.70. With `CCN1Cc2sc(C(=O)c3cncnc3N[C@H]3C[C@H](O)[C@@H](COS(N)(=O)=O)[C@@H]3F)cc2[C@]2(C1)OCCc1ccc(Cl)cc12` [Compound 731] the pIC50 was ≥ 7.30. With `CC(C)N1Cc2sc(C(=O)c3cncnc3N[C@H]3C[C@H](O)[C@@H](COS(N)(=O)=O)[C@@H]3F)cc2C2(C1)OCCc1ccc(F)cc12` (stereo partly drawn) [Compound 732] the pIC50 was 6.70 to 7.30. With `CC(C)N1Cc2sc(C(=O)c3cncnc3N[C@H]3C[C@H](O)[C@@H](COS(N)(=O)=O)[C@@H]3F)cc2[C@@]2(C1)OCCc1ccc(F)cc12` [Compound 733] the pIC50 was < 6.70. For `CC(C)N1Cc2sc(C(=O)c3cncnc3N[C@H]3C[C@H](O)[C@@H](COS(N)(=O)=O)[C@@H]3F)cc2[C@]2(C1)OCCc1ccc(F)cc12` [Compound 734], the pIC50 was ≥ 7.30. Work on `CC(C)N1Cc2sc(C(=O)c3cncnc3N[C@H]3C[C@H](O)[C@@H](COS(N)(=O)=O)[C@@H]3F)cc2C2(C1)OCCc1ccc(Cl)cc12` (stereo partly drawn) [Compound 735] yielded a pIC50 of 6.70 to 7.30. With `CC(C)N1Cc2sc(C(=O)c3cncnc3N[C@H]3C[C@H](O)[C@@H](COS(N)(=O)=O)[C@@H]3F)cc2[C@@]2(C1)OCCc1ccc(Cl)cc12` [Compound 736] the pIC50 was < 6.70. For `CC(C)N1Cc2sc(C(=O)c3cncnc3N[C@H]3C[C@H](O)[C@@H](COS(N)(=O)=O)[C@@H]3F)cc2[C@]2(C1)OCCc1ccc(Cl)cc12` [Compound 737], the pIC50 was ≥ 7.30.
